Patent US4186202A, “Phenyl-pyridylamine derivatives” (priority 1974, dated 1980)
Structures can show the parent of a compound that is named as a salt.

How the values were obtained:
[1] = test system: uptake of 14C-5-hydroxytryptamine; assay: Inhibition of uptake of 14C-5-HT in mouse midbrain slices, in vitro; assay type: biochemical; conditions: 5 minutes preincubation, 5 minutes incubation
Description: (§1) It is not possible by experimental means to induce depressions in laboratory animals. In order to evaluate a possible anti-depressive effect of new substances biochemical-pharmacological test methods must be resorted to. One such method, which seems to give a good indication of the potential anti-depressive effects of the test substances, is described in Europ.
(§2) The test substances were administered intraperitoneally half an hour before the animals were killed. […] The incubation time was 5 minutes with 5 minutes of preincubation before the labelled amines were added. The slices were dissolved in Soluene® and the amounts of radio-active amines taken up were determined by liquid scintillation. […] Active uptake is defined as that part of the radioactive uptake which is inhibited by a high concentration of cocaine.
In the in vitro method, slices of mouse midbrain were preincubated for 5 minutes with a solution of the compound to be tested and then incubated as described above.

[2] = test system: uptake of 14C-5-hydroxytryptamine; assay: Inhibition of uptake of 14C-5-HT in mouse midbrain slices after in vivo (i.p.) administration; conditions: i.p. half an hour before killing, dose producing 50 percent decrease of active uptake; for ED50: Mus musculus, ip, 0.5 h
Description: as §1, §2

[3] = test system: uptake of 3H-noradrenaline; assay: Inhibition of uptake of 3H-noradrenaline in mouse midbrain slices after in vivo (i.p.) administration; conditions: ip, at the dose 101 μmole/kg i.p., read-out: inhibition recorded (uptake of 3H-NA, in vivo)
Description: as §2, with “It is not possible by experimental means to induce depressions in laboratory animals. In order to evaluate a possible anti-depressive effect of new substances biochemical-pharmacological test methods must be resorted to. One such method, which seems to give a good indication of the potential anti-depressive effects of the test substances, is described in Europ. […] The test” for “The test”

[4] = in vivo; cited from earlier work

| Structure (SMILES) | EC50 [1] | ED50 [2] | inhibition at 101 µmol/kg [3] | Uptake of 14C-5-HT, in vivo ED50 ([2]; 30 min) | antidepressive effect [4] |
| --- | --- | --- | --- | --- | --- |
| CNCC=C(c1ccc(Br)cc1)c1cccnc1 [H, mixture, oxalate, 3-(4-bromophenyl)-N-methyl-3-(3-pyridyl)-allylamine] | 500 nM | 32 µmol/kg |  |  |  |
| CNC/C=C(/c1ccc(Br)cc1)c1cccnc1 [H, Z, oxalate, 3-(4-bromophenyl)-N-methyl-3-(3-pyridyl)-allylamine] | 500 nM | 18 µmol/kg |  |  |  |
| CNC/C=C(/c1ccc(Br)cc1)c1cccnc1 [H, Z, hydrochloride, 3-(4-bromophenyl)-N-methyl-3-(3-pyridyl)-allylamine] |  |  | 38% | 15.2 μmole/kg i.p. |  |
| CN(C)CC=C(c1ccccc1)c1ccccc1 |  |  |  |  | have an antidepressive effect |
